Experimental data published in patent publication US20250059139A1, “COMPOUNDS FOR TREATMENT OF CANCER” (THE JOHNS HOPKINS UNIVERSITY, priority 2021, published 2025).

Columns and labels:
[1] = test system: thymus; assay: AHR agonist induced thymus regression in FVB male mice; format: in vivo, mouse; conditions: mouse, in vivo, po, 30 mg/kg/day
Procedure: To evaluate AHR agonist induced thymus regression, groups of five 4-week old FVB male mice from Jackson Laboratory were treated with either vehicle, Linomide, TasQ, or its analogs daily by orally gavage for 2 weeks and then the thymus removed and weighted.
Oral Drug treatment. TasQ at the indicated dose was initially dissolved with equal molar 1 N sodium hydroxide. This solution was diluted with sterile water and the mixture stirred for 1 hr. The pH was then adjusted with 1 N HCl to 8.9 and 200 μL given daily via oral gavage.
This means that in the clinical setting, dose-escalation above 1 mg/d of TasQ as needed to reach this >2 μM blood level for optimal anti-cancer efficacy will also enhance unwanted off-target AHR induction. Therefore, a medicinal chemical approach was undertaken to identify third generation quinoline-3-carboxamide analogs with increased HDAC4 inhibition, but with reduced AHR agonism. The approach taken is based upon the earlier SPR analysis documenting that TasQ linked to the surface chip via its aniline-N is a potent binder of HDAC4. Thus, a series of quinoline-3-carboxamide analogs were synthesized focusing upon adduct changes at the aniline-N. These analogs were synthesized as described in Example 1, and were initially screened for their AHR agonist activity using the in vitro human cell-based ARE-driven luciferase reporter gene assay (Table 3).

[2] = test system: HDAC4 KD LNCaP cells; assay: In vitro growth of HDAC4 KD LNCaP cells; format: cell-based, human
Procedure: Generation of stable shRNA Knock Down (KD) Variants. Stable shRNA HDAC4, and HIF-1α knockdown (KD) were as described previously (id.). Stable shRNA AHR KD as described previously (id.) using […] (SEQ ID NO: 1) as the targeting sequence.
Similarly, under such optimal conditions, knocking down HDAC4 expression by 50% with shRNA only decreases the growth of LNCaP cells by <25%, which is equivalent to the inhibition by TasQ at 10 μM (FIG. 22). […] In contrast to normoxic in vitro conditions, cancers outgrow their blood supply in vivo, producing a TME that is hypoxic, nutrient-limited, and acidic (low pH). For example, when prostate cancer xenografts growing subcutaneously reach a size of ˜0.2-0.3 cc, the TME is already hypoxic with a pO2 of 3.6+/−1.5 mmHg compared to 37.5+/−8.6 mmHg in normal tissue (Dalrymple et al. Prostate 72, 638-648 (2012)). When LNCaP cells are switched from 21% O2 (i.e., 160 mmHg) to a hypoxic condition of 1% O2 (i.e., 7.6 mmHg), their growth decreases by 50% (FIG. 22). This hypoxia-induced growth inhibition is enhanced by either knocking down HDAC4 or by treatment with TasQ (FIG. 22).

[3] = test system: HUVEC; assay: mRNA expression of HUVEC in 3D-fibrin gels with HDF-conditioned media; format: cell-based, human; conditions: Fibroblast Conditioned Media: Yes, TasQ (10 μM): Yes
Procedure: Three Dimensional (3D) Endothelial Sprouting Assay. The assay was performed using a minimum of 3 replicate wells of a 48 well tissue culture plate per drug dose per experiment, repeated 3 independent times in which human umbilical vein endothelial cells (HUVECs) obtained from Lonza Walkersville Inc (Walkersville, MD) attached to gelatin-coated dextran microcarrier bead are embedded in a fibrin matrix as described previously (Brennen et al. Oncotarget 7, 71298-71308 (2016)).
Besides its therapeutic effects on cancer cells, TasQ's anti-cancer efficacy also involves its dose-dependent anti-angiogenic activity (see, e.g., Isaacs 2006, Olsson 2010, Dalrymple 2012), Isaacs 2013, Isaacs 2014, Brennen 2016). To clarify the MoA for this anti-angiogenic activity, a 3-dimensional (3D) endothelial cell sprouting assay was used. In this assay, human umbilical vein endothelial cells (HUVECs) in basal media supplemented with VEGF, EGF, FGF, IGF1 and 2% FBS in standard 2D cultures are attached to collagen-coated beads embedded in a 3D-fibrin gel in the same growth factor-supplemented media. […] This lack of sprouting is associated with an upregulation in Mef-2c mRNA (Table 2) and protein (FIG. 38), and its target genes (Table 2) like Alpha 2 Macroglobulin (A2M). […] When the 3D-fibrin gels are further supplemented with conditioned media (CM) from human dermal fibroblasts (HDF) to provide additional angiogenic factors typically present within the TME A2M (Nakatsu et al. Microvasc Res 66, 102-112 (2003)), expression of the MEF-2c target genes, including A2M, is blocked (Table 2); enabling endothelial cell proliferation and invasion into the gels (i.e., “sprouting”); eventually forming canalized and anastomosing neovascular tubes within 7 days (FIG. 37). Importantly, 3D-sprouting occurs (FIG. 37), even when HIF-1α expression is KD in the HUVEC cells (FIG. 39).

| SMILES | induction of thymus regression [1] | effect on HDAC4 KD cells exposed to hypoxia ([2]; 10 μM, 1% O2) | inhibition at 10 µM ([2]; Homo sapiens, LNCaP, normoxic) [%] | A2M Gene Expression (FPKM), Mef-2c Target Gene [3] [FPKM] | Adamt59 Gene Expression (FPKM), Mef-2c Target Gene [3] [FPKM] | Apinr Gene Expression (FPKM), Mef-2c Target Gene [3] [FPKM] | Ets1 Gene Expression (FPKM) [3] [FPKM] | Ets2 Gene Expression (FPKM) [3] [FPKM] | KDR (VEGFR2) Gene Expression (FPKM), Ets Target Gene [3] [FPKM] | LI1 (VEGFR1) Gene Expression (FPKM), Ets Target Gene [3] | Mef-2c Target Gene Expression, Gene Expression (FPKM) [3] | NR4A1 Gene Expression (FPKM), Mef-2c Target Gene [3] | NR4A2 Gene Expression (FPKM), Mef-2c Target Gene [3] [FPKM] | SerpinB1 Gene Expression (FPKM), Mef-2c Target Gene [3] | Spry Gene Expression (FPKM), Mef-2c Target Gene [3] | Stc1 Gene Expression (FPKM), Mef-2c Target Gene [3] |
| --- | --- | --- | --- | --- | --- | --- | --- | --- | --- | --- | --- | --- | --- | --- | --- | --- |
| COc1cccc2c1c(O)c(C(=O)N(c1ccc(C(F)(F)F)cc1)C1CCCCC1)c(=O)n2C [ESATA-20] | lack of induction | – | – | – | – | – | – | – | – | – | – | – | – | – | – | – |
| COc1cccc2c1c(O)c(C(=O)N(C)c1ccc(C(F)(F)F)cc1)c(=O)n2C [TasQ, Tasquinimod] | – | the cells die | > 50 | 257 | 89.2 | 81.1 | 73 | 45.2 | 99.3 | 106,830 FPKM | 21,217 FPKM | 1,598 FPKM | 297 | 4,926 FPKM | 11,728 FPKM | 18,619 FPKM |
